Drawing on patent US20190047966A1, “NOVEL COMPOUND AND PHARMACOLOGICALLY ACCEPTABLE SALT THEREOF” (MEIJI SEIKA PHARMA CO., LTD., priority 2016, published 2019), this text covers Ki and IC50 for 1 compound.

The target of test [1] is T1, human histamine H1 receptor (Homo sapiens, UniProt P35367). Kind of test: Evaluation of Human H1 Receptor Affinity ([3H]pyrilamine binding). The arrangement: purchased PerkinElmer Inc; host or cells: CHO-K1. As to conditions: inhibition constant Ki, CHO-K1 membrane preparation. The essentials:
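Ki values are Cheng-Prusoff conversions of IC50 (Kd 1.1 nM) from radioligand displacement of 1.2 nM [3H]pyrilamine, with 1.0 μM pyrilamine defining nonspecific binding.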

Test [2] deals with T1, human histamine H1 receptor. Kind of test: Evaluation of Human H1 Receptor Function (GeneBLAzer H1-NFAT-bla HEK 293T cells). The format is cell-based. The following applies: histamine 30 nM, read-out: Evaluation of H1 Receptor Function (IC50 value, antagonistic effect). The method, boiled down:
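HEK 293T cells carrying an NFAT-β-lactamase reporter were pre-incubated with compound for 30 min at 37 °C, then stimulated with 30 nM histamine for 4.5 h. FRET substrate was loaded for 2 h at room temperature. IC50 came from the blank-corrected 460/535 nm emission ratio (excitation 400 nm).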

For test [3], the target named is T2, human histamine H4 receptor (Homo sapiens, UniProt Q9H3N8).
T2 construct: purchased PerkinElmer Inc; host or cells: CHO-K1
As to the kind of experiment: Evaluation of H4 Receptor Function ([35S]GTPγS binding). The class given is biochemical. The following applies: [35S]GTPγS binding, CHO-K1 membrane, 0.1 μM histamine; read-out: Evaluation of H4 Receptor Function (IC50 value, antagonistic effect). The essentials: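 Antagonism measured on membranes from recombinant CHO-K1 cells expressing the receptor, with 10 μM GDP and 0.1 μM histamine, reacted 20 min at 30° C in 20 mM HEPES pH 7.4, 100 mM NaCl, 10 mM MgCl2, 1 mM DTT, 1 mM EDTA. SPA beads added (60 min), then 0.3 nM [35S]GTPγS for 30 min.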
For orientation: Binding of GTPγS marks nucleotide exchange on a G protein.

In test [4] the target is T2, human histamine H4 receptor. As to the kind of experiment: Evaluation of Human H4 Receptor Affinity ([3H]histamine binding). The following applies: inhibition constant Ki, CHO-K1 membrane preparation, read-out: Evaluation of H4 Receptor Affinity. The method, boiled down: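 Membranes from CHO-K1 cells expressing human H4 receptor incubated with 8.2 nM [3H]histamine and compound for 90 min at 25 °C in 50 mM Tris-HCl pH 7.4, 1.25 mM EDTA, then filtered and counted. Nonspecific binding defined with 1.0 μM histamine; Ki from IC50 by Cheng-Prusoff using Kd 5.7 nM.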

T2 sequence (Q9H3N8 whole entry): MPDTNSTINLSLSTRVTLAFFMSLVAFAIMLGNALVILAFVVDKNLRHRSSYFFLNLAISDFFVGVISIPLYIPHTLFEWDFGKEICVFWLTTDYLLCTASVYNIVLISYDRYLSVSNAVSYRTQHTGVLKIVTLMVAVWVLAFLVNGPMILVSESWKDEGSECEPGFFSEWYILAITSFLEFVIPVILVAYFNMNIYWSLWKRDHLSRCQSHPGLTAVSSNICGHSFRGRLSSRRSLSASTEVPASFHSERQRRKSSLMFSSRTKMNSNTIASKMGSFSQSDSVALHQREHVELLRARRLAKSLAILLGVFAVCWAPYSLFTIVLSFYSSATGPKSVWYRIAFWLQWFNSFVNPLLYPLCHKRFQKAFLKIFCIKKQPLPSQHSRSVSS
T1 sequence (P35367 whole entry): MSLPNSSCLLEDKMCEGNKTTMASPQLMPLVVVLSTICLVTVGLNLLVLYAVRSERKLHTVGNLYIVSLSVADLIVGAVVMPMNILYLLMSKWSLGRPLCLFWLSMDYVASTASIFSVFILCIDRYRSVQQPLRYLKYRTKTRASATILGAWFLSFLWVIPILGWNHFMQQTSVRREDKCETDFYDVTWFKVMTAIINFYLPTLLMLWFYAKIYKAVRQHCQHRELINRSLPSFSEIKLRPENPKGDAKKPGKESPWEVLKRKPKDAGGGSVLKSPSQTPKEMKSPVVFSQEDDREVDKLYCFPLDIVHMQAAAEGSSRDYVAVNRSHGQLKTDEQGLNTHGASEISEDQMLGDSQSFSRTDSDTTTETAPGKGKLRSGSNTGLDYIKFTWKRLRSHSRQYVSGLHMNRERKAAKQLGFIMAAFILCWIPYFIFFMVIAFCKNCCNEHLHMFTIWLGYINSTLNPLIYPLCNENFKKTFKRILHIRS

What is called IC50 is the concentration that inhibits the measured activity by half. On to `CN1CCN(c2nc(N)nc3c2Cc2ccc(OCc4ccccc4)cc2-3)CC1` [Example 201, 8-(benzyloxy)-4-(4-methylpiperazin-1-yl)-5H-indeno[1,2-d]pyrimidin-2-amine], for which the Ki in test [1] and in test [4] was under 100 nM in each case. The IC50 in test [2] and in test [3] was under 200 nM in each case.
